Type in all cases: physicochemical
The nature of series [1]: Lipophilicity, log P of the compound. Conditions: octanol/water.
The nature of series [2]: Intrinsic solubility, log 1/S0 of the compound.
The nature of series [3]: Dissociation constant, pKa of the compound.

As to `COc1cnc(NS(=O)(=O)c2ccc(N)cc2)nc1`, the logP – broadly, the decadic logarithm of the partition coefficient of the neutral form, usually between octanol and water – in series [1] stood at 0.46. This compound also came in with a log1/S0 in series [2] of 3.63.
With `CC(C)C(NC(=O)Cn1c(-c2ccccc2)cc2c(=O)n(CC(N)=O)c(=O)[nH]c2c1=O)C(=O)C(F)(F)F` (stereo unspecified), the log1/S0 in series [2] turned out to be 3.6.
In series [2], `CC(C)C(NC(=O)Cn1c(-c2ccccc2)cc2c(=O)n(C)c(=O)[nH]c2c1=O)C(=O)C(F)(F)F` (stereo unspecified) had a log1/S0 of 4.03.
The same measure, in the same setting: the value for `COc1ccc(Cn2c(=O)[nH]c3c(=O)n(CC(=O)NC(C(=O)C(F)(F)F)C(C)C)c(-c4ccccc4)cc3c2=O)cc1` (stereo unspecified) was 3.4; that for `CCOCCn1c(=O)[nH]c2c(=O)n(CC(=O)NC(C(=O)C(F)(F)F)C(C)C)c(-c3ccccc3)cc2c1=O` (stereo unspecified) was 4.83.
`CC(C)C(NC(=O)Cn1c(-c2ccccc2)cc2c(=O)n(CCN3CCOCC3)c(=O)[nH]c2c1=O)C(=O)C(F)(F)F` (stereo unspecified) registered a log1/S0 in series [2] of 3.44. In addition, the pKa – broadly, the negative logarithm of the acid dissociation constant – in series [3] was 7.04.
With `COC(OC)n1c(=O)[nH]c2c(=O)n(CC(=O)NC(C(=O)C(F)(F)F)C(C)C)c(-c3ccccc3)cc2c1=O` (stereo unspecified), the log1/S0 in series [2] is 3.11.
In turn, `CNC(=O)Cn1c(=O)[nH]c2c(=O)n(CC(=O)NC(C(=O)C(F)(F)F)C(C)C)c(-c3ccccc3)cc2c1=O` (stereo unspecified) came in with a log1/S0 in series [2] of 3.73.
The compound `O=C1CN=C(c2ccccc2Cl)c2cc(Cl)ccc2N1` [DELORAZEPAM] yielded a log1/S0 in series [2] of 3.97.
The compound `CN1C(=O)CN=C(c2ccccc2)c2cc(Cl)ccc21` [DIAZEPAM] registered a log1/S0 in series [2] of 3.83.
Same read-out and setting: for `CN1CCN=C(c2ccccc2)c2cc(Cl)ccc21` [MEDAZEPAM] the value was 4.41.
The compound `Nc1ccc(S(=O)(=O)Nc2ncccn2)cc1` [SULFADIAZINE] had a logP in series [1] of -0.13. For the same compound, in series [2], the log1/S0 came to 3.67.
Consider `COc1ncnc(NS(=O)(=O)c2ccc(N)cc2)c1OC` [SULFADOXINE], for which the lipophilicity (logP) in series [1] was found to be 1.06. In series [2], this compound came in with a log1/S0 of 3.59.
`Cc1ccnc(NS(=O)(=O)c2ccc(N)cc2)n1` [SULFAMERAZINE] registered a logP in series [1] of 0.13.
`Cc1cc(C)nc(NS(=O)(=O)c2ccc(N)cc2)n1` [SULFAMETHAZINE] yielded a lipophilicity (logP) in series [1] of 0.89.
Regarding `COc1ccc(NS(=O)(=O)c2ccc(N)cc2)nn1` [SULFAMETHOXYPYRIDAZINE], the lipophilicity (logP) in series [1] was found to be 0.4. Besides, the log1/S0 in series [2] is listed as 2.55.
In the case of `COc1cc(NS(=O)(=O)c2ccc(N)cc2)nc(C)n1` [SULFAMETOMIDINE], the log1/S0 in series [2] is on record as 3.05.
As to `Cc1cc(NS(=O)(=O)c2ccc(N)cc2)nc(C)n1` [SULFISOMIDINE], the logP in series [1] is -0.3. In series [2], this compound gave a log1/S0 of 2.78.
Compound `Cc1noc(NS(=O)(=O)c2ccc(N)cc2)c1C` [SULFISOXAZOLE] showed a logP in series [1] of 1.15. This compound also displayed a log1/S0 in series [2] of 3.45.

Values taken from ChEMBL document CHEMBL1781917, “Computational aqueous solubility prediction for drug-like compounds in congeneric series” (Eur J Med Chem, 2008).
